Measurements from patent US10166216B2 (Rigel Pharmaceuticals, Inc., priority 2006, dated 2019).

Molecular target: Axl (Homo sapiens (Human), UniProt P30530)
Assay: Phospho-Akt in-cell Western assay (Axl-antibody cross-linking stimulation)
Format: cell-based
Conditions: inhibition of Axl activity
In short: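 HeLa cells on poly-L-lysine, starved 24 hrs with Axl/Fc, pre-treated with compound 1 hr at 37° C., then stimulated 5 min with Axl primary/secondary antibody cluster. Fixed cells probed for phospho-Akt by chemiluminescent in-cell Western; signal normalized to crystal violet cell number.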

[1] = phospho-Akt in-cell Western assay

Chain of Axl (P30530 26-894): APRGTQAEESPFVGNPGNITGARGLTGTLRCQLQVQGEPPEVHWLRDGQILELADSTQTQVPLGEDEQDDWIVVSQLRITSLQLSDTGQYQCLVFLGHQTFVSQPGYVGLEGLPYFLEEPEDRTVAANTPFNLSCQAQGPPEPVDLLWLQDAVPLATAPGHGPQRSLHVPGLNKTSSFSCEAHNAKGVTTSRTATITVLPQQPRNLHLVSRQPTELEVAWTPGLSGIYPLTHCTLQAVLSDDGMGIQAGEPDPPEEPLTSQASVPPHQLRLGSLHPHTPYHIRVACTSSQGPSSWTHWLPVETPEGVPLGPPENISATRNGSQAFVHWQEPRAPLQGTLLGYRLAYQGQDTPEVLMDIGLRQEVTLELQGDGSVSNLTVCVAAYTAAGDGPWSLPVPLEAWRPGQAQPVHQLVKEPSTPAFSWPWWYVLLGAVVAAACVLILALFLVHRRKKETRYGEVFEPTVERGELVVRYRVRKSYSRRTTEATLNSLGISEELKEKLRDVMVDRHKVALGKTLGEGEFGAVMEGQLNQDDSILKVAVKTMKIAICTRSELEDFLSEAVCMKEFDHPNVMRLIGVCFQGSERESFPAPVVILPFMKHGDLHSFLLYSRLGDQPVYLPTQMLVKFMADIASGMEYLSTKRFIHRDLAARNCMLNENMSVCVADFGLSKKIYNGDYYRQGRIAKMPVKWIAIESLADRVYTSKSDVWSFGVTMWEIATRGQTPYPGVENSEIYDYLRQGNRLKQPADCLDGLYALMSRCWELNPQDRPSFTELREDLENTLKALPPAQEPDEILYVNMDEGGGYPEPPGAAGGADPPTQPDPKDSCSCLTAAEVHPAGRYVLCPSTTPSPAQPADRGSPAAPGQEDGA

IC50 [1] [nM]	SMILES	also measured
	COc1cc2ncnc(-n3nc(Nc4ccc(C5CCN(C)CC5)cc4)nc3N)c2cc1OC [Compound 168, 1-(6,7-dimethoxyquinazolin-4-yl)-N^3-(4-(1-methylpiperidin-4-yl)phenyl)-1H-1,2,4-triazole-3,5-diamine]	IC50 (Hela cells, phospho-Akt readout, Table 5, formula (Ia3)): < 1000 nM
1000 to 10000	Nc1nc(Nc2ccc(N3CCN(C4CC5CCC4C5)CC3)cc2)nn1-c1ncnc2cc(-c3ccccc3)sc12 (stereo not shown) [Compound 129, N^3-(4-(4-(bicyclo[2.2.1]heptan-2-yl)piperazin-1-yl)phenyl)-1-(6-phenylthieno[3,2-d]pyrimidin-4-yl)-1H-1,2,4-triazole-3,5-diamine]	
< 1000	COc1cc2c(-n3nc(Nc4ccc(N5CCN(C6CCCCC6)CC5)cc4)nc3N)ncnc2cc1O [Compound 82, 4-(5-amino-3-(4-(4-cyclohexylpiperazin-1-yl)phenylamino)-1H-1,2,4-triazol-1-yl)-6-methoxyquinazolin-7-ol]	
	Cc1csc2c(-n3nc(Nc4ccc5c(c4)CCC(N(C)C4CC6CCC4C6)CC5)nc3N)nc(Cl)nc12 (stereo not shown) [Compound 221, 1-(7-methyl-2-chlorothieno[3,2-d]pyrimidin-4-yl)-N^3-(7-(N-methyl-N-bicyclo[2.2.1]heptan-2-yl)amino-6,7,8,9-tetrahydro-5H-benzo[7]annulene-2-yl)-1H-1,2,4-triazole-3,5-diamine]	IC50 (Hela cells, phospho-Akt readout, Table 7, formula (Ia4)): < 1000 nM
< 1000	Nc1nc(Nc2ccc(N3CCN([C@H]4C[C@@H]5CC[C@H]4C5)CC3)cc2)nn1-c1ncnc2ccsc12 [Compound 189, 1-(thieno[3,2-d]pyrimidin-4-yl)-N^3-(4-(4-((1S,2S,4R)-bicyclo[2.2.1]heptan-2-yl)-piperazin-1-yl)phenyl)-1H-1,2,4-triazole-3,5-diamine]	
< 1000	Nc1nc(Nc2ccc(N3CCN(C4CC5CCC4C5)CC3)c(F)c2)nn1-c1ncnc2ccc(F)cc12 (stereo not shown) [Compound 197, 1-(6-fluoroquinazolin-4-yl)-N^3-(3-fluoro-4-(4-(bicyclo[2.2.1]heptan-2-yl)-piperazin-1-yl)phenyl)-1H-1,2,4-triazole-3,5-diamine]	
< 1000	Cc1csc2c(-n3nc(Nc4ccc(N5CCN(C6CC7CCC6C7)CC5)c(F)c4)nc3N)ncnc12 (stereo not shown) [Compound 194]	
< 1000	COc1cc2ncnc(-n3nc(Nc4ccc(N5CCN(C)CC5)c(F)c4)nc3N)c2cc1OC [Compound 105, 1-(6,7-dimethoxyquinazolin-4-yl)-N^3-(3-fluoro-4-(4-methylpiperazin-1-yl)phenyl)-1H-1,2,4-triazole-3,5-diamine]	
1000 to 10000	Cc1csc2c(-n3nc(Nc4ccc(N5CCN([C@H]6CC7CCC6C7)CC5)cc4)nc3N)nc(C=CCN3CCN(C)CC3)nc12 (stereo partly drawn) [Compound 240, 1-(7-methyl-2-(3-(4-methylpiperazin-1-yl)prop-1-enyl)thieno[3,2-d]pyrimidin-4-yl)-N^3-(4-(4-((2S)-bicyclo[2.2.1]heptan-2-yl)piperazin-1-yl)phenyl)-1H-1,2,4-triazole-3,5-diamine]	
1000 to 10000	Cc1csc2c(-n3nc(Nc4ccc(N5CCN(C6CC7CCC6C7)CC5)c(F)c4)nc3N)nc(Cl)nc12 (stereo not shown) [Compound 140, N^3-(4-(4-(bicyclo[2.2.1]heptan-2-yl)piperazin-1-yl)-3-fluorophenyl)-1-(2-chloro-7-methylthieno[3,2-d]pyrimidin-4-yl)-1H-1,2,4-triazole-3,5-diamine]	
